From US11760775B2, “Steroids and protein-conjugates thereof” (Regeneron Pharmaceuticals, Inc., priority 2016, dated 2023)
pEC50, pIC50: −log10 of the molar value. Counter-ions that a name gives are not always drawn. Like-named read-outs stand apart in the source and are kept apart here.

What was measured:
[1] = biological target: Glucocorticoid Receptor (GR) (Homo sapiens (Human), UniProt P04150); experiment: LanthaScreen TR-FRET GR Competitive Binding Assay (cell free)
[2] = test system: GR activation in 293/PRLR/GRE-Luc cells (HEK293/9xUAS-Luc2P/pBind-GR/PRLR-HA high cells); experiment: GR co-activator luciferase reporter cell based assay in 293/PRLR/GRE-Luc cells; parameters: species or system human; details: for Emax: HEK293, read-out: Activation (fold activation relative to Budesonide) in HEK293/9xUAS-Luc2P/pBind-GR/PRLR-HA high cells; for HEK293/9xUAS-Luc2P/pBind-GR/PRLR-HA high cells activation relative to Budesonide: fold activation vs Budesonide
From the text: Bioassays described herein were used to assess the efficacy of free steroids and anti-PRLR-ncADCs. In one example, the bioassay assessed the activity of steroids, after internalization of a site-specific anti-PRLR-GC steroid ADC into cells, to bind to pBIND-GR and subsequent luciferase reporter activation. […] Then such stable cell line was further transfected with a chimeric receptor consisting of a GR ligand binding domain fused to the yeast Gal4 DNA binding domain (pBind-GR, Promega Cat #E1581), and a Gal4 upstream activator sequence (9×Gal4UAS-Luc2P) that drives luciferase gene expression.
(§1) For this assay, 20,000 cells were seeded in 96-well plates in media containing DMEM supplemented with 10% FBS and pencillin/streptomycin (complete media) and grown overnight at 37° C. in 5% CO2. […] Luciferase activity was determined by addition of OneGlo™ reagent (Promega, Cat #E6130) and relative light units (RLUs) were measured on a Victor luminometer (Perkin Elmer). The EC50 values were determined from a four-parameter logistic equation over a 10 point response curve using GraphPad Prism.
as §1, with “One-Glo™” for “OneGlo™”, “10-point” for “10 point”, “Prism. […] Minimal activation in this assay is defined as less than 10% of the maximal activation measured with the free payload.” for “Prism.”

[3] = Homo sapiens, 72 hours of incubation
[4] = Homo sapiens, HEK293, 72 hours of incubation, read-out: HEK293/9xUAS-Luc2P/pBind-GR/PRLR-HA high cells EC50
[5] = Homo sapiens, HEK293, read-out: HEK293/9xUAS-Luc2P/pBind-GR/PRLR-HA high cells EC50

Glucocorticoid Receptor (GR), sequence (P04150 524-758): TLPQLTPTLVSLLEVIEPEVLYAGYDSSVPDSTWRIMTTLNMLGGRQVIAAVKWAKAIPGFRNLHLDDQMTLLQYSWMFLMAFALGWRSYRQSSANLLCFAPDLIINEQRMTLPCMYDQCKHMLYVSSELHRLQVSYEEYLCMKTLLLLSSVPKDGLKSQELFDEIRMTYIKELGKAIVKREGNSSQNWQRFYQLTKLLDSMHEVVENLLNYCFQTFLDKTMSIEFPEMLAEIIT

Molecule	pIC50 [1]	Emax [2, 3] [%]	pEC50 [2, 4]	also measured
CCC[C@@H]1O[C@@H]2C[C@H]3[C@@H]4CCC5=CC(=O)C=C[C@]5(C)[C@H]4[C@@H](O)C[C@]3(C)[C@]2(C(=O)COc2ccc(N)cc2)O1 [11-5 R, (1S,2S,4R,8S,9S,11S,12S,13R)-8-[2-(4-Aminophenoxy)acetyl]-11-hydroxy-9,13-dimethyl-6-propyl-5,7-dioxapentacyclo[10.8.0.0^2,90.0^4,80.0^13,18]icosa-14,17-dien-16-one]	7.00 to 8.00	> 75	> 8.00	
CCCC1O[C@@H]2C[C@H]3[C@@H]4C[C@H](F)C5=CC(=O)C=C[C@]5(C)[C@@]4(F)[C@@H](O)C[C@]3(C)[C@]2(C(=O)COc2ccc(N)c(OC)c2)O1 (stereo partly drawn) [Compound 6-II, (1S,2S,4R,8S,9S,11S,12R,13S,19S)-8-[2-(4-Amino-3-methoxyphenoxy)acetyl]-12,19-difluoro-11-hydroxy-9,13-dimethyl-6-propyl-5,7-dioxapentacyclo[10.8.0.0^2,90.0^4,80.0^13,18]icosa-14,17-dien-16-one trifluoroacetate]	> 8.00			pEC50 [2, 5]: > 8.00; HEK293/9xUAS-Luc2P/pBind-GR/PRLR-HA high cells activation relative to Budesonide [2]: Full
CCCC1O[C@@H]2C[C@H]3[C@@H]4C[C@H](F)C5=CC(=O)C=C[C@]5(C)[C@@]4(F)[C@@H](O)C[C@]3(C)[C@]2(C(=O)CNc2ccc(N)cc2)O1 (stereo partly drawn) [Compound 5-I, (1S,2S,4R,8S,9S,11S,12R,13S,19S)-8-{2-[(4-Aminophenyl)amino]acetyl}-12,19-difluoro-11-hydroxy-9,13-dimethyl-6-propyl-5,7-dioxapentacyclo[10.8.0.0^2,90.0^4,80.0^13,18]icosa-14,17-dien-16-one Trifluoroacetate]				pEC50 [2, 5]: > 8.00; HEK293/9xUAS-Luc2P/pBind-GR/PRLR-HA high cells activation relative to Budesonide [2]: Full
CCCC1O[C@@H]2C[C@H]3[C@@H]4C[C@H](F)C5=CC(=O)C=C[C@]5(C)[C@@]4(F)[C@@H](O)C[C@]3(C)[C@]2(C(=O)COc2cccc(N)c2)O1 (stereo partly drawn) [11-13 R, (1S,2S,4R,6R,8S,9S,11S,12R,13S,19S)-8-[2-(3-Aminophenoxy)acetyl]-12,19-difluoro-11-hydroxy-9,13-dimethyl-6-propyl-5,7-dioxapentacyclo[10.8.0.0^2,90.0^4,80.0^13,18]icosa-14,17-dien-16-one]	> 8.00	> 75	> 8.00	
CCCC1O[C@@H]2C[C@H]3[C@@H]4C[C@H](F)C5=CC(=O)C=C[C@]5(C)[C@@]4(F)[C@@H](O)C[C@]3(C)[C@]2(C(=O)CNC)O1 (stereo partly drawn) [11-21 R/S, (1S,2S,4R,8S,9S,11S,12R,13S,19S)-12,19-Difluoro-11-hydroxy-9,13-dimethyl-8-[2-(methylamino)acetyl]-6-propyl-5,7-dioxapentacyclo[10.8.0.0^2,90.0^4,80.0^13,18]icosa-14,17-dien-16-one; trifluoroacetic acid]	> 8.00	20 to 75	7.00 to 8.00	
CCCC1O[C@@H]2C[C@H]3[C@@H]4C[C@H](F)C5=CC(=O)C=C[C@]5(C)[C@@]4(F)[C@@H](O)C[C@]3(C)[C@]2(C(=O)COc2cccc(N)n2)O1 (stereo partly drawn) [11-17 R/S, (1S,2S,4R,8S,9S,11S,12R,13S,19S)-8-{2-[(6-Aminopyridin-2-yl)oxy]acetyl}-12,19-difluoro-11-hydroxy-9,13-dimethyl-6-propyl-5,7-dioxapentacyclo[10.8.0.0^2,90.0^4,80.0^13,18]icosa-14,17-dien-16-one]	> 8.00	> 75	7.00 to 8.00	
CCCC1O[C@@H]2C[C@H]3[C@@H]4CCC5=CC(=O)C=C[C@]5(C)[C@@]4(F)[C@@H](O)C[C@]3(C)[C@]2(C(=O)CN)O1 (stereo partly drawn) [Compound 4h, (1S,2S,4R,8S,9S,11S,12R,13S)-8-(2-Aminoacetyl)-12-fluoro-11-hydroxy-9,13-dimethyl-6-propyl-5,7-dioxapentacyclo[10.8.0.0^2,9.0^4,8.0^13,18]icosa-14,17-dien-16-one]	7.30 to 8.00			pEC50 [2, 5]: > 8.00; HEK293/9xUAS-Luc2P/pBind-GR/PRLR-HA high cells activation relative to Budesonide [2]: Full
C[C@@H]1C[C@H]2[C@@H]3C[C@H](F)C4=CC(=O)C=C[C@]4(C)[C@@]3(F)[C@@H](O)C[C@]2(C)[C@@]1(O)C(=O)COc1ccc(N)cc1 [Compound 15-5, (1R,2S,8S,10S,11S,13R,14R,155,17S)-14-[2-(4-Aminophenoxy)acetyl]-1,8-difluoro-14,17-dihydroxy-2,13,15-trimethyltetracyclo[8.7.0.0^2,70.0^11,15]heptadeca-3,6-dien-5 one]	7.00 to 8.00			Activation (fold activation relative to Budesonide) in HEK293/9xUAS-Luc2P/pBind-GR/PRLR-HA high cells ([2]; 72 hours of incubation): Full activation (Full activation: >75% of fold activation induced by Budesonide); pEC50 ([2]; 72 hours of incubation, read-out: HEK293/9xUAS-Luc2P/pBind-GR/PRLR-HA high cells EC50): 7.00 to 8.00
CC(C)C(=O)OCC(=O)[C@@]12O[C@H](c3ccc(N)cc3)O[C@@H]1C[C@H]1[C@@H]3CCC4=CC(=O)C=C[C@]4(C)[C@H]3[C@@H](O)C[C@@]12C [8-1 R, 2[(1S,2S,4R,8S,9S,11S,12S,13R)-6-(4-Aminophenyl)-11-hydroxy-9,13-dimethyl-16-oxo-5,7-dioxapentacyclo[10.8.0.0^2,90.0^4,80.0^13,18]icosa-14,17-dien-8-yl]-2-oxoethyl 2-methylpropanoate]			7.00 to 8.00	Activation (fold activation relative to Budesonide) in HEK293/9xUAS-Luc2P/pBind-GR/PRLR-HA high cells ([2]; 72 hours of incubation): full activation
C[C@]12C=CC(=O)C=C1CC[C@@H]1[C@@H]2[C@@H](O)C[C@@]2(C)[C@H]1C[C@H]1O[C@@H](c3ccc(N)cc3)O[C@]12C(=O)CO [Compound 7-1R]				GRE-Luc activation ([2]; 293/PRLR/GRE-Luc cells, 72 hours): full GRE-Luc activation; pEC50 ([2]; 293/PRLR/GRE-Luc cells, 72 hours, read-out: EC50 of GRE-Luc activation): 7.00 to 8.00
C[C@@H]1C[C@H]2[C@@H]3CCC4=CC(=O)C=C[C@]4(C)[C@@]3(F)[C@@H](O)C[C@]2(C)[C@@]1(O)C(=O)CO [compound 1c, dexamethasone, reference compound]				pEC50 ([2]; 293/PRLR/GRE-Luc cells, 72 hours, ADCs with or without cyclodextrin linkers, read-out: EC50): 8.08; Maximal Activation ([2]; 293/PRLR/GRE-Luc cells, 72 hours, relative to free payload): Full (Full activation in this assay is defined between 90 and 100% of the maximal activation measured with the free payload)
(6S,8S,9S,10R,11S,13S,14S,17R)-17-(2-(4-Aminophenoxy)acetyl)-11,17-dihydroxy-6,10,13-trimethyl-6,7,8,9,10,11,12,13,14,15,16,17-dodecahydro-3H-cyclopenta[a]phenanthren-3-one [Compound 6-VI]				HEK293/9xUAS-Luc2P/pBind-GR/PRLR-HA high cells activation relative to Budesonide [2]: Full; pEC50 ([2]; read-out: HEK293/9xUAS-Luc2P/pBind-GR/PRLR-HA high cells EC50): > 8.00
CCCC1O[C@@H]2C[C@H]3[C@@H]4C[C@H](F)C5=CC(=O)C=C[C@]5(C)[C@@]4(F)[C@@H](O)C[C@]3(C)[C@]2(C(=O)COc2ccc(N)c(F)c2)O1 (stereo partly drawn) [Compound 6-III, (1S,2S,4R,8S,9S,11S,12R,13S,19S)-8-[2-(4-Amino-3-fluorophenoxy)acetyl]-12,19-difluoro-11-hydroxy-9,13-dimethyl-6-propyl-5,7-dioxapentacyclo[10.8.0.0^2,90.0^4,8.0^13,18]icosa-14,17-dien-16-one]				pEC50 [2, 5]: > 8.00
CC(=O)OCC(=O)[C@@]1(OC(C)=O)[C@@H](C)C[C@H]2[C@@H]3C[C@H](F)C4=CC(=O)C=C[C@]4(C)[C@@]3(F)[C@@H](O)C[C@@]21C [Diflorasone, diflorasone, reference compound]		> 75	> 8.00	
